# Data as given in the supplement of paper PMC8882468.
# ± gives the standard deviation of the averaged measurements.
# Tested on: HCI-017.E2 (organoid from an ER-positive breast cancer xenograft)
# Assay: CTG-3D luminescence at 96 h relative to day-0 seeding control (ratio to day 0); higher = more growth / less cytotoxicity; PDxO 3D drug screen, 96 h, CTG-3D normalised to day-0 seeding control.
# Details: 1 µM
row,SMILES,CTG-3D luminescence at 96 h
1,CC(C)(C(=O)NCC(F)(F)C(F)(F)F)C(=O)N[C@@H]1C(=O)Nc2ccccc2-c2ccccc21,2.04 ± 0.16
2,C=CC(=O)N1CCC[C@@H](n2nc(-c3ccc(Oc4ccccc4)cc3)c3c(N)ncnc32)C1 [ibrutinib],2.29 ± 0.15
3,CNC(=O)c1cccc(-c2ccc3c(N4CCOC[C@@H]4C)nc(N4CCOC[C@@H]4C)nc3n2)c1 [vistusertib],0.698 ± 0.14
4,CCN(c1cc(C#CCN2CCOCC2)cc(C(=O)NCc2c(C)cc(C)[nH]c2=O)c1C)[C@H]1CC[C@H](N(C)CCOC)CC1,1.72 ± 0.17

# Same assay, conditions: 1 µM; days in culture: 85
row,SMILES,CTG-3D luminescence at 96 h
1,CC(C)(C(=O)NCC(F)(F)C(F)(F)F)C(=O)N[C@@H]1C(=O)Nc2ccccc2-c2ccccc21,1.19
2,C=CC(=O)N1CCC[C@@H](n2nc(-c3ccc(Oc4ccccc4)cc3)c3c(N)ncnc32)C1 [ibrutinib],1.88
3,CNC(=O)c1cccc(-c2ccc3c(N4CCOC[C@@H]4C)nc(N4CCOC[C@@H]4C)nc3n2)c1 [vistusertib],0.732
4,CCN(c1cc(C#CCN2CCOCC2)cc(C(=O)NCc2c(C)cc(C)[nH]c2=O)c1C)[C@H]1CC[C@H](N(C)CCOC)CC1,1.45

# Same assay, conditions: 10 µM
row,SMILES,CTG-3D luminescence at 96 h
1,CC(C)(C(=O)NCC(F)(F)C(F)(F)F)C(=O)N[C@@H]1C(=O)Nc2ccccc2-c2ccccc21,1.78 ± 0.29
2,C=CC(=O)N1CCC[C@@H](n2nc(-c3ccc(Oc4ccccc4)cc3)c3c(N)ncnc32)C1 [ibrutinib],1.49 ± 0.045
3,CNC(=O)c1cccc(-c2ccc3c(N4CCOC[C@@H]4C)nc(N4CCOC[C@@H]4C)nc3n2)c1 [vistusertib],0.585 ± 0.11
4,CCN(c1cc(C#CCN2CCOCC2)cc(C(=O)NCc2c(C)cc(C)[nH]c2=O)c1C)[C@H]1CC[C@H](N(C)CCOC)CC1,2.01 ± 0.46

# Same assay, conditions: 10 µM; days in culture: 85
row,SMILES,CTG-3D luminescence at 96 h
1,CC(C)(C(=O)NCC(F)(F)C(F)(F)F)C(=O)N[C@@H]1C(=O)Nc2ccccc2-c2ccccc21,1.24
2,C=CC(=O)N1CCC[C@@H](n2nc(-c3ccc(Oc4ccccc4)cc3)c3c(N)ncnc32)C1 [ibrutinib],1.6
3,CNC(=O)c1cccc(-c2ccc3c(N4CCOC[C@@H]4C)nc(N4CCOC[C@@H]4C)nc3n2)c1 [vistusertib],0.76
4,CCN(c1cc(C#CCN2CCOCC2)cc(C(=O)NCc2c(C)cc(C)[nH]c2=O)c1C)[C@H]1CC[C@H](N(C)CCOC)CC1,1.61

# Same assay, conditions: 100 µM
row,SMILES,CTG-3D luminescence at 96 h
1,CC(C)(C(=O)NCC(F)(F)C(F)(F)F)C(=O)N[C@@H]1C(=O)Nc2ccccc2-c2ccccc21,1.23 ± 0.24
2,C=CC(=O)N1CCC[C@@H](n2nc(-c3ccc(Oc4ccccc4)cc3)c3c(N)ncnc32)C1 [ibrutinib],0.00316 ± 0.00048
3,CNC(=O)c1cccc(-c2ccc3c(N4CCOC[C@@H]4C)nc(N4CCOC[C@@H]4C)nc3n2)c1 [vistusertib],0.418 ± 0.13
4,CCN(c1cc(C#CCN2CCOCC2)cc(C(=O)NCc2c(C)cc(C)[nH]c2=O)c1C)[C@H]1CC[C@H](N(C)CCOC)CC1,1.5 ± 0.8

# Same assay, conditions: 100 µM; days in culture: 85
row,SMILES,CTG-3D luminescence at 96 h
1,CC(C)(C(=O)NCC(F)(F)C(F)(F)F)C(=O)N[C@@H]1C(=O)Nc2ccccc2-c2ccccc21,1.25
2,C=CC(=O)N1CCC[C@@H](n2nc(-c3ccc(Oc4ccccc4)cc3)c3c(N)ncnc32)C1 [ibrutinib],0.0338
3,CNC(=O)c1cccc(-c2ccc3c(N4CCOC[C@@H]4C)nc(N4CCOC[C@@H]4C)nc3n2)c1 [vistusertib],0.421
4,CCN(c1cc(C#CCN2CCOCC2)cc(C(=O)NCc2c(C)cc(C)[nH]c2=O)c1C)[C@H]1CC[C@H](N(C)CCOC)CC1,1.9

# Same assay, conditions: 625 fM
row,SMILES,CTG-3D luminescence at 96 h
1,CC(C)(C(=O)NCC(F)(F)C(F)(F)F)C(=O)N[C@@H]1C(=O)Nc2ccccc2-c2ccccc21,2.06 ± 0.25
2,C=CC(=O)N1CCC[C@@H](n2nc(-c3ccc(Oc4ccccc4)cc3)c3c(N)ncnc32)C1 [ibrutinib],2.16 ± 0.11
3,CNC(=O)c1cccc(-c2ccc3c(N4CCOC[C@@H]4C)nc(N4CCOC[C@@H]4C)nc3n2)c1 [vistusertib],2.18 ± 0.067
4,CCN(c1cc(C#CCN2CCOCC2)cc(C(=O)NCc2c(C)cc(C)[nH]c2=O)c1C)[C@H]1CC[C@H](N(C)CCOC)CC1,2.01 ± 0.32

# Same assay, conditions: 625 fM; days in culture: 85
row,SMILES,CTG-3D luminescence at 96 h
1,CC(C)(C(=O)NCC(F)(F)C(F)(F)F)C(=O)N[C@@H]1C(=O)Nc2ccccc2-c2ccccc21,2.29
2,C=CC(=O)N1CCC[C@@H](n2nc(-c3ccc(Oc4ccccc4)cc3)c3c(N)ncnc32)C1 [ibrutinib],2.31
3,CNC(=O)c1cccc(-c2ccc3c(N4CCOC[C@@H]4C)nc(N4CCOC[C@@H]4C)nc3n2)c1 [vistusertib],2.95
4,CCN(c1cc(C#CCN2CCOCC2)cc(C(=O)NCc2c(C)cc(C)[nH]c2=O)c1C)[C@H]1CC[C@H](N(C)CCOC)CC1,1.77
